According to ChEMBL document CHEMBL1201862, “PubChem BioAssay data set” (2004):
The source made the active and inactive calls.

Assays:
[1] = biological target: T1, Mannose-6-phosphate isomerase (Homo sapiens, UniProt P34949); test: MPI inhibition at elevated mannose 6-phosphate – biochemical, fluorescence intensity, high mannose 6-phosphate, primary screen (AID 1220)
T1 sequence (P34949 whole entry): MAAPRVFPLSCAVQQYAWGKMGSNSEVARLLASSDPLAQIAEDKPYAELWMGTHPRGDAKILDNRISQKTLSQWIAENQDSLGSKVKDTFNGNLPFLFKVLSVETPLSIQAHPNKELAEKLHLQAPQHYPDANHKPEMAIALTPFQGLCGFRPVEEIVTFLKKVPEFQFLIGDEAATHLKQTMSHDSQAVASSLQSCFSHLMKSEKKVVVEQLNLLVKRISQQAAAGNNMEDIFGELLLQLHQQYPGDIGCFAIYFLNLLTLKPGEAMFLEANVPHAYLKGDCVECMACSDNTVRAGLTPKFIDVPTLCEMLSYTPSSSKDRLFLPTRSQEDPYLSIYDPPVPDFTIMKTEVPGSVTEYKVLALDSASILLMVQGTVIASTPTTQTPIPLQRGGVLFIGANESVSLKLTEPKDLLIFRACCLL

[2] = biological target: T2, Sentrin-specific protease 6 (Homo sapiens, UniProt Q9GZR1); format: functional;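 further: Luminescence-based dose-response confirmatory assay of SENP6 inhibition, following up an ultra-high-throughput screen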
T2 sequence (Q9GZR1 whole entry): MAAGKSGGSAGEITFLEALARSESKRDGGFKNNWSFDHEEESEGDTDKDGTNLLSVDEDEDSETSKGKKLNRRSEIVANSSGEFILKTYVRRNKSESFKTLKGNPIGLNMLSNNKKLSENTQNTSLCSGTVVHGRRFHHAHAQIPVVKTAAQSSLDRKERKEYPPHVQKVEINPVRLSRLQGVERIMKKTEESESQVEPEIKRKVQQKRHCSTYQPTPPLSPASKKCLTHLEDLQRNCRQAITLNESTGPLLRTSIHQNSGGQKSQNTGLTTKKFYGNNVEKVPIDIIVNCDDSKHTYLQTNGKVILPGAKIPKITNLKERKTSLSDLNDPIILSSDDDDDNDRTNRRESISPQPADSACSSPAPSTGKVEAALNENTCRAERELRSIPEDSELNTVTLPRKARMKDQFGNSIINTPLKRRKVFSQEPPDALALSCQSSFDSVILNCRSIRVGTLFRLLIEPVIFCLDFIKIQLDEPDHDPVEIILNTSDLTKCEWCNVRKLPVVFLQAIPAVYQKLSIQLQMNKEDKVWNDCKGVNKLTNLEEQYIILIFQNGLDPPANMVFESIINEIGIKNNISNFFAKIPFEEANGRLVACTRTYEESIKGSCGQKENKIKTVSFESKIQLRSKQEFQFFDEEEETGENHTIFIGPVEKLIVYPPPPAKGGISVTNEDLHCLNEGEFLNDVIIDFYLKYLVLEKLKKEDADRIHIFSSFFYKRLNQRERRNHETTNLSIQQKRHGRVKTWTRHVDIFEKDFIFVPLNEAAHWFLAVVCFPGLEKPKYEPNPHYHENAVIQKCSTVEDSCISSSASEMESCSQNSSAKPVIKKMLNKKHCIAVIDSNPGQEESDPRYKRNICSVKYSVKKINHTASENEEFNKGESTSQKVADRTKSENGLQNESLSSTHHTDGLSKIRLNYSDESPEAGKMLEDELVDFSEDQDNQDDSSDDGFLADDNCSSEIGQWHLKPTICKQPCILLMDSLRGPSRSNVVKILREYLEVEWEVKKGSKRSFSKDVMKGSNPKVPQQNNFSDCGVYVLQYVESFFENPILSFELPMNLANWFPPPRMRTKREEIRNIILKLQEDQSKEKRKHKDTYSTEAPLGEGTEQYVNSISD

[3] = biological target: T3, Sentrin-specific protease 8 (Homo sapiens, UniProt Q96LD8); format: functional;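 further: luminescence read-out of SENP8 inhibition, dose-response confirmation following an ultra-high-throughput screen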
T3 sequence (Q96LD8 whole entry): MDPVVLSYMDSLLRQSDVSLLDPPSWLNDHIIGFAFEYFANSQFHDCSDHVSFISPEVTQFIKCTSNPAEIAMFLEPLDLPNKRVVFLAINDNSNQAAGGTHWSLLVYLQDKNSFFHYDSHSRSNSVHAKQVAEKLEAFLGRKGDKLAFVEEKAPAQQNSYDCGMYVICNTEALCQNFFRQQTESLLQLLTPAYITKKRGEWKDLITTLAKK

Caspase-3 = biological target: T4, Caspase-3 (Homo sapiens, UniProt P42574); format: functional;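 further: Dose-response selectivity test against caspase-3 for candidate inhibitors of sentrin-specific proteases (SENPs)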
T4 sequence (P42574 whole entry): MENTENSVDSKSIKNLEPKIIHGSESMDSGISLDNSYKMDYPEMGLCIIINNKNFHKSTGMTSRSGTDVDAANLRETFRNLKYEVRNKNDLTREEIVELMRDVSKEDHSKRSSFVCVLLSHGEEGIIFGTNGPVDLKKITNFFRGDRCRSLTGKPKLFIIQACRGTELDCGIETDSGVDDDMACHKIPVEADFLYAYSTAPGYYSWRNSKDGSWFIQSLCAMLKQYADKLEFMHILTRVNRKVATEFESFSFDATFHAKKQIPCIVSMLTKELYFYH

[4] = biological target: T5, Sentrin-specific protease 7 (Homo sapiens, UniProt Q9BQF6); format: functional;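 further: Luminescence-based dose-response confirmation of ultra-high-throughput screening hits, measuring inhibition of SENP7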
T5 sequence (Q9BQF6 whole entry): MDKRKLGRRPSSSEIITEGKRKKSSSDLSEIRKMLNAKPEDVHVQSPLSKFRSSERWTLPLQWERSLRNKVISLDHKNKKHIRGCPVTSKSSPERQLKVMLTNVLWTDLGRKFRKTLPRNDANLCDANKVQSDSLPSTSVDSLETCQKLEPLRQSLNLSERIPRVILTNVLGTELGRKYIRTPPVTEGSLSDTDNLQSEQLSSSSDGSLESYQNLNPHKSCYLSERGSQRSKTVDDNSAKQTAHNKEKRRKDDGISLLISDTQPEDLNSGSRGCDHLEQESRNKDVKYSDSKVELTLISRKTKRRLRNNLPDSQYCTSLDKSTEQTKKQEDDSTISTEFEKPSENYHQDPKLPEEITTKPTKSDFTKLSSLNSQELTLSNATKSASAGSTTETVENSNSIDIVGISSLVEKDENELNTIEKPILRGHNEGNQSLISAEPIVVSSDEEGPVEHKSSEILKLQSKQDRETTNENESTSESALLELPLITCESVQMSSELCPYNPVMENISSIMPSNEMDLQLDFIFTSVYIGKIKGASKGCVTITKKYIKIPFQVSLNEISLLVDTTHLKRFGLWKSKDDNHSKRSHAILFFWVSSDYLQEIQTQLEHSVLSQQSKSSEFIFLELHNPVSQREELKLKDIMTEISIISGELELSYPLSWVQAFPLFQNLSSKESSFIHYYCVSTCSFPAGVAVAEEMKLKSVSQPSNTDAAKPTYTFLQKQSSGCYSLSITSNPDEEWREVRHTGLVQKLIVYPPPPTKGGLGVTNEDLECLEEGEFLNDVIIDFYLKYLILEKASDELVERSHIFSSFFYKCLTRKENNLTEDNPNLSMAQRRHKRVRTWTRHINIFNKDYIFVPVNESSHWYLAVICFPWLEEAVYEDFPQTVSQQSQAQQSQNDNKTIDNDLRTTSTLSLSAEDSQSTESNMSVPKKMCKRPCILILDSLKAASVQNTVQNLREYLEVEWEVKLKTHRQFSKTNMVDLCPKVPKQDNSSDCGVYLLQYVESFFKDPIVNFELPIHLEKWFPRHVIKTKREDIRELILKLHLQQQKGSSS

[5] = biological target: T6, Heat shock factor protein 1 (Mus musculus, UniProt P38532); test: enhancement of HSF1-driven luciferase signal – cell-based, NIH3T3, luminescence, dose retest, confirmation (AID 435004); format: functional;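 further: stress induced by proteasome inhibitor MG132 added 30 min after compound; luciferase reporter driven by HSF1 response element in NIH3T3 cells; actives raise luminescence as potentiators of the MG132 stress response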
T6 sequence (P38532 whole entry): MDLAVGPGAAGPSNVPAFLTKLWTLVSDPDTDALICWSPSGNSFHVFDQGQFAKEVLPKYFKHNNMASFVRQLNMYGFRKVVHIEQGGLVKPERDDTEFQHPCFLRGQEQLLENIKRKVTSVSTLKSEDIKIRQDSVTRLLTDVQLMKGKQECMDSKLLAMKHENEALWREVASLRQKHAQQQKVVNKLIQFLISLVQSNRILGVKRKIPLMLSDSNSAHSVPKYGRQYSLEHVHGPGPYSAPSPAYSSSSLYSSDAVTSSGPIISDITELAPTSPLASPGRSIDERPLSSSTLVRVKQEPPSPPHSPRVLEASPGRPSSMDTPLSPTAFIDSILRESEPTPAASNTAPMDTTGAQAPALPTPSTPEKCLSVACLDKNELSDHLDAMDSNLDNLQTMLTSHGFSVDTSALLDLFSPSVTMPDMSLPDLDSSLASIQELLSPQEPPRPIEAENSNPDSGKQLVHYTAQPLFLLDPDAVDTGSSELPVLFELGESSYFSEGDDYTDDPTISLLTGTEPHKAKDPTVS

[6] = blockers of bursicon-stimulated LGR2 cAMP reporter – cell-based, HEK293, CRE-luciferase reporter, cherry pick, set 2, dose response (AID 743343); format: functional;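 further: transfected cells were stimulated with diluted bursicon conditioned medium after compound addition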
H9c2 = test: cells; format: functional, cell-based; conditions: Rattus norvegicus, H9c2, Myocardium;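 further: confirmatory concentration-response retest of ultra-high-throughput screening hits for modulation of myocardial damage; cell death induced by hydrogen peroxide oxidative stress; compound pretreatment for 60 min then peroxide exposure for 2 h; potency is for protecting the cells against peroxide damage rather than for killing them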
[7] = blockade of melanocortin 4 receptor signaling – cell-based, plate reader, cherry pick, counter-screen for LGR2 antagonist project, dose response (AID 743444); format: functional;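 further: transfected HEK 293 cells stimulated with alpha-MSH peptide; potency of inhibitors of the alpha-MSH evoked signal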
[8] = biological target: T7, Replicative DNA helicase DnaB (Mycobacterium tuberculosis, UniProt P9WMR3); test: DnaB intein splicing inhibitors, dose response, biochemical, cell-free fluorescence (AID 449749); format: functional
T7 sequence (P9WMR3 whole entry): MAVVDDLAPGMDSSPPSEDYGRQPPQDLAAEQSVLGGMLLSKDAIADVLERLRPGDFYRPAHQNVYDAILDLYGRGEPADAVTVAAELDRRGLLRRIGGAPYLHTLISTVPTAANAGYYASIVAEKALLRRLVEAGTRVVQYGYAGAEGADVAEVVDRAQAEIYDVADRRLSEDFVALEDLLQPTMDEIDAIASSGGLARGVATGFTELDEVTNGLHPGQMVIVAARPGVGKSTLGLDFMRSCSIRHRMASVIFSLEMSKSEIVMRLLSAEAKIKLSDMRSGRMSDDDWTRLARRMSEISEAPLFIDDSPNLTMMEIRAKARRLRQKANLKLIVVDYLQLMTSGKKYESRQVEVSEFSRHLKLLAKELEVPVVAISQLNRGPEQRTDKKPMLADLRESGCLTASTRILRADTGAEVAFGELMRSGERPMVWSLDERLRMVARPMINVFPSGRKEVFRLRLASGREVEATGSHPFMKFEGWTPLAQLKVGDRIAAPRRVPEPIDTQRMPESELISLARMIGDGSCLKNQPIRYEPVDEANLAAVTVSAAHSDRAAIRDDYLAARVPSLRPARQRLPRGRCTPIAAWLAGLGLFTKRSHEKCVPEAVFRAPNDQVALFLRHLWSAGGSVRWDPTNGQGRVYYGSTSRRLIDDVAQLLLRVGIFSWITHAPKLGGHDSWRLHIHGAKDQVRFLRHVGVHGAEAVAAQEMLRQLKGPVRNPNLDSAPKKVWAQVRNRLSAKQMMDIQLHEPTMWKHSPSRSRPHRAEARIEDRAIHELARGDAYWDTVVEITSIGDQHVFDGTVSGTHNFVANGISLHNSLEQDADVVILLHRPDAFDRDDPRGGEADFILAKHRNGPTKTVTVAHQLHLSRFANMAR

Protein RecA = biological target: T8, Protein RecA (Mycobacterium tuberculosis, UniProt P9WHJ3); test: Fluorescence Cell-Free Homogeneous Dose Retest to Identify Inhibitors of RecA-Intein Splicing Activity. [Related pubchem assays (depositor defined):AID2097, AID2223, AID489010, AID492950]; format: functional
T8 sequence (P9WHJ3 whole entry): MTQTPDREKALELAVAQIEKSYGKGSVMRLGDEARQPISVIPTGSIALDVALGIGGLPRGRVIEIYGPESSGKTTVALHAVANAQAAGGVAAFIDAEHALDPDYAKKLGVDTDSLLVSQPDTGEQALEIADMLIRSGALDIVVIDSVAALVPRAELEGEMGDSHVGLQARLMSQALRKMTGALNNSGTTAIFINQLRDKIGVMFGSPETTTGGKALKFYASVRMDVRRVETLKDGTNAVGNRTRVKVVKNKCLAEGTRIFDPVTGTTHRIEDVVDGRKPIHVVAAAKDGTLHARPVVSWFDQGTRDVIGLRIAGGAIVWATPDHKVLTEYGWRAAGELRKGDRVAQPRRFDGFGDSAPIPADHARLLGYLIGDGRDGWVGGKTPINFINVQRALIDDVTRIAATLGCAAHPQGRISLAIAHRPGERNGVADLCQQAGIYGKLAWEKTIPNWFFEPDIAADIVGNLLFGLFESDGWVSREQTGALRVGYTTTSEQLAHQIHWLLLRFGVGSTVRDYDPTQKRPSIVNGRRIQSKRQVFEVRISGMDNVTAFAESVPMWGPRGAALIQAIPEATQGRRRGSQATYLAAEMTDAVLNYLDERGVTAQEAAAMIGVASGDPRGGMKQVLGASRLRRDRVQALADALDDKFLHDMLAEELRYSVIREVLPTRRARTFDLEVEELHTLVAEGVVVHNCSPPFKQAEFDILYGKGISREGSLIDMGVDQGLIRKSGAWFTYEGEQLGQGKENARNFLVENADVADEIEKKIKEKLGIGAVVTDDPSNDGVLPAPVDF

SMILES	IC50 [1]	IC50 [2]	IC50 [3]	IC50 (Caspase-3)	IC50 [4]	also measured
Cc1ccc(S(=O)(=O)N(C)C)cc1NC(S)=Nc1ccc2c[nH]nc2c1	> 50 µM (not active)					
CCOc1ccc(-n2nc3cc(C)c(N)cc3n2)cc1		6.21 µM (active)	59.3 µM (active)	7.93 µM (active)	2.94 µM (active)	
NC(=O)c1ccccc1OCC(=O)Nc1ccc(Cl)c(Cl)c1		> 100 µM (inactive)	> 100 µM (inactive)	37.8 µM (active)	10.4 µM (active)	EC50 [5]: > 260 µM (inconclusive)
O=C(O)c1cccc(NC(=O)c2cccc(S(=O)(=O)N3CCc4ccccc43)c2)c1		23.7 µM (active)	24.4 µM (active)	90.5 µM (active)	9.85 µM (active)	
COc1cc(NC(=O)c2cccc3c(-c4cnn(C)c4)coc23)cc(OC)c1OC						AC50 [6]: 24.3 µM (active); IC50 (H9c2): > 79 µM (inactive); AC50 [7]: 17.9 µM (active)
Cc1ccc(C(=O)N/N=C/c2ccc(-c3ccccc3[N+](=O)[O-])o2)cn1	> 50 µM (not active)					AC50 [8]: 30.6 µM (active); EC50 (Protein RecA): 13.5 µM (active)
